From US12365696B2, “Small-molecule focal adhesion kinase (FAK) inhibitors” (DANA-FARBER CANCER INSTITUTE, INC., priority 2019, dated 2025)
Where two headings read alike, the source gives them in different places.

Experiments:
Test in all cases: KINOMEscan
Assay type in all cases: binding
FGR = FGR (Homo sapiens (Human), UniProt P09769); conditions: 10000 nM, read-out: Percent Control
TBK1 = TBK1 (Homo sapiens (Human), UniProt Q9UHD2); conditions: TBK1, 10000 nM; read-out: Percent Control
PKAC-alpha = PKAC-alpha (Homo sapiens (Human), UniProt P17612); conditions: 10000 nM, read-out: Percent Control
RDGFRB = RDGFRB (Homo sapiens (Human), UniProt P09619); conditions: 10000 nM, read-out: Percent Control
TNNI3K = TNNI3K (Homo sapiens (Human), UniProt Q59H18); conditions: 10000 nM, read-out: Percent Control
TEC = TEC (Homo sapiens (Human), UniProt P42680); conditions: 10000 nM, read-out: Percent Control
NEK3 = NEK3 (Homo sapiens (Human), UniProt P51956); conditions: NEK3, 10000 nM; read-out: Percent Control
NEK3, sequence (P51956 whole entry): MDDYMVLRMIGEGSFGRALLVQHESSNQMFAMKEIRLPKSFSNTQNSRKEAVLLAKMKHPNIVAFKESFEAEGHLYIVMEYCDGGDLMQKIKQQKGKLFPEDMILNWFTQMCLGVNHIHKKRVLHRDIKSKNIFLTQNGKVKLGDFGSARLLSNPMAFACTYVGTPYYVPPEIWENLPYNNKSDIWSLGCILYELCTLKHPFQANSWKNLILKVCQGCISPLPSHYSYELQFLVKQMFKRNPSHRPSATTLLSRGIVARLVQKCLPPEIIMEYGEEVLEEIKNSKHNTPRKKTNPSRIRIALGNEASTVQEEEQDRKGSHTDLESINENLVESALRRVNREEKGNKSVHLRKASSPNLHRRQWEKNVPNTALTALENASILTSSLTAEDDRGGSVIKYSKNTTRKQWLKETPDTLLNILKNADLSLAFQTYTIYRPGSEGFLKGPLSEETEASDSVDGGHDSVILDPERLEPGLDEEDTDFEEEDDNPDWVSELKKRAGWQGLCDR

ALK(C1156Y) = ALK(C1156Y) (Homo sapiens (Human), UniProt Q9UM73, C1156Y); conditions: 10000 nM, read-out: Percent Control
TRKC = TRKC (Homo sapiens (Human), UniProt Q16288); conditions: 10000 nM, read-out: Percent Control
LRRK2 = LRRK2 (Homo sapiens (Human), UniProt Q5S007); conditions: LRRK2, 10000 nM; read-out: Percent Control
LRRK2, sequence (Q5S007 whole entry): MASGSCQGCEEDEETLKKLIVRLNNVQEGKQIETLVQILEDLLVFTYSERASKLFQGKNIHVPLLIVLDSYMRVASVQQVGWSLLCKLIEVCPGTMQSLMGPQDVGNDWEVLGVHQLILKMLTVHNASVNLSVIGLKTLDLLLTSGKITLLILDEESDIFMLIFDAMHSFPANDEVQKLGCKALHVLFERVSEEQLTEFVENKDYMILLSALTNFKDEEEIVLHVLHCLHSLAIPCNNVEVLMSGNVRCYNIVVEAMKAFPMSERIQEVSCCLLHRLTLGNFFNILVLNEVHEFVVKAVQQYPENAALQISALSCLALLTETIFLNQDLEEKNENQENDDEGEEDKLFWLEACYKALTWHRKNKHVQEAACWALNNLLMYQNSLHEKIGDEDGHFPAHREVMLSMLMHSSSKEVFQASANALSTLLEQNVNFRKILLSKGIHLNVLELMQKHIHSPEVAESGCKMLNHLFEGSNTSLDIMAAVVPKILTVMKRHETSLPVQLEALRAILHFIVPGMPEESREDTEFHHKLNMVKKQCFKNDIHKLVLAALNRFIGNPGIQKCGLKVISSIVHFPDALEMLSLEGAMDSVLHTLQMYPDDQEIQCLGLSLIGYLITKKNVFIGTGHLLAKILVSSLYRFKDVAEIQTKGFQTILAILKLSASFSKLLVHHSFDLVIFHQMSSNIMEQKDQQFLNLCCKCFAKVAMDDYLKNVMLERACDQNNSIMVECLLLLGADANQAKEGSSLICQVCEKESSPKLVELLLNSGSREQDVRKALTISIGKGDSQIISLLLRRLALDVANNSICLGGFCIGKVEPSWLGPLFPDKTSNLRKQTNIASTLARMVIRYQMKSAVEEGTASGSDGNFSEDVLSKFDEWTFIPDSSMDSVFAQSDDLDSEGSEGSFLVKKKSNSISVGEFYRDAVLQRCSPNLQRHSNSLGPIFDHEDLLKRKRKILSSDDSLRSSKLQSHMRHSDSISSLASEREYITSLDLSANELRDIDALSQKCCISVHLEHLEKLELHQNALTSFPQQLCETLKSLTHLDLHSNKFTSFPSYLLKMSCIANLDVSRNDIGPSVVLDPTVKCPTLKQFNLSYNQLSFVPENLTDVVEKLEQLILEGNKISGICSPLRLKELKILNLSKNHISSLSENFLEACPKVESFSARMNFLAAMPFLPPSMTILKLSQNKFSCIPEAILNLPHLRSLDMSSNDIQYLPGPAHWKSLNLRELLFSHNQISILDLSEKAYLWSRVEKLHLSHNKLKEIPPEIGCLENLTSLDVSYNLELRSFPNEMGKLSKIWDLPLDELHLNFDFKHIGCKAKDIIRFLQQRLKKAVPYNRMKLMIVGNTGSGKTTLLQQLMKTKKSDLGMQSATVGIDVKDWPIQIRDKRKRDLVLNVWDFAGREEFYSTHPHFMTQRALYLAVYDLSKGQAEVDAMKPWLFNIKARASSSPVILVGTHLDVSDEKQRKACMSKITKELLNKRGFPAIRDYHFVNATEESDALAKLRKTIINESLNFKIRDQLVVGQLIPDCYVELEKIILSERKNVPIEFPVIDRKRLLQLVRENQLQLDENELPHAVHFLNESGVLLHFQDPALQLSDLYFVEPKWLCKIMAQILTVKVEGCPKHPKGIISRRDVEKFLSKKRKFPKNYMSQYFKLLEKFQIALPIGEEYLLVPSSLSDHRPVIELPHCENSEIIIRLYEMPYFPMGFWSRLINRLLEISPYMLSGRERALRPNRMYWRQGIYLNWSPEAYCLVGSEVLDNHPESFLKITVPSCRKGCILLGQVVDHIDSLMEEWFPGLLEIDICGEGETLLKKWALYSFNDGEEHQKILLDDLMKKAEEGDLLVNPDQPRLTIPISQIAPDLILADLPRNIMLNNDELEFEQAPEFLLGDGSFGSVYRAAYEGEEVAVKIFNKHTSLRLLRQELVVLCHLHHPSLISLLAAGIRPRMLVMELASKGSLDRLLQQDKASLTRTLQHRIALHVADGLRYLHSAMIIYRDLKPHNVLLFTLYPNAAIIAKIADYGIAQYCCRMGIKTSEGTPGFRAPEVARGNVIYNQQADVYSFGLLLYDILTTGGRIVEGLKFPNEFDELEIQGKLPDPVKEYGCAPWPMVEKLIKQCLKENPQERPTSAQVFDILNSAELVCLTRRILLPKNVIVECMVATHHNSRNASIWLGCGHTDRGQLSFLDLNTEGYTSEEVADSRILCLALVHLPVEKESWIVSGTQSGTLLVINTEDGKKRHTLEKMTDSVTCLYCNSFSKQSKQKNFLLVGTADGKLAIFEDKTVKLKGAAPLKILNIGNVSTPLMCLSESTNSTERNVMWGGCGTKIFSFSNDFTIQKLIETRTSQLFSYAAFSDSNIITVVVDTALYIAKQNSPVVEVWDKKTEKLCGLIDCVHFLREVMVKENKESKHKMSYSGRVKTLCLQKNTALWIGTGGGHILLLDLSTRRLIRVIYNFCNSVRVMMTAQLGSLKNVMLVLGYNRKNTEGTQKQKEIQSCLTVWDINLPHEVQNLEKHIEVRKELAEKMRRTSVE

FGFR3 = FGFR3 (Homo sapiens (Human), UniProt P22607); conditions: FGFR3, 10000 nM; read-out: Percent Control
FGFR3, sequence (P22607 23-806): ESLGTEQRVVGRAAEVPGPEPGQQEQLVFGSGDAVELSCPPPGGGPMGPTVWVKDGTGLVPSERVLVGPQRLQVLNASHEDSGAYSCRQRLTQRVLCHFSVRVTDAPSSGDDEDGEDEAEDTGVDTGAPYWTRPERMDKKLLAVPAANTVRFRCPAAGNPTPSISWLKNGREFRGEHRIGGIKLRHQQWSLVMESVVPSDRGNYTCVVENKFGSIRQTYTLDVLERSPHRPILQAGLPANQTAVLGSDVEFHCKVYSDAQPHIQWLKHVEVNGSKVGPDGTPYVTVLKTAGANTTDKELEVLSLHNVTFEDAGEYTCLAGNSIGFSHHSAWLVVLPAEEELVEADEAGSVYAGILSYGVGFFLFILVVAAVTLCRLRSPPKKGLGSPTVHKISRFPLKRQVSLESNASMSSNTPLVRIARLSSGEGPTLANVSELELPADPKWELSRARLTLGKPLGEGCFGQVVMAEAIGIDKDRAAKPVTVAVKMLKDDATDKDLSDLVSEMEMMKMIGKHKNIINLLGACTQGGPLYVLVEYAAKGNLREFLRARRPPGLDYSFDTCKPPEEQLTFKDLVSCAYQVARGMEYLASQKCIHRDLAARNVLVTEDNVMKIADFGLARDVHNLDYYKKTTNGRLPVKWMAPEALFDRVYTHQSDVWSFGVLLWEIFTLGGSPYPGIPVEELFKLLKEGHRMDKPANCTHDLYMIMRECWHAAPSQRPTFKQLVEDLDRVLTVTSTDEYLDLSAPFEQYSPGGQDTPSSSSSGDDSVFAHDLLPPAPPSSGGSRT

[1] = target: JAK3(JH1domain-catalytic) (Homo sapiens (Human), UniProt P52333); conditions: 10000 nM, read-out: Percent Control
PIK3CA(M1043I) = PIK3CA(M1043I) (Homo sapiens (Human), UniProt P42336, M1043I); conditions: 10000 nM, read-out: Percent Control
[2] = target: TYK2(JH2domain-pseudokinase) (Homo sapiens (Human), UniProt P29597); conditions: 10000 nM, read-out: Percent Control
TNK2 = TNK2 (Homo sapiens (Human), UniProt Q07912); conditions: TNK2, 10000 nM; read-out: Percent Control
TSSK3 = TSSK3 (Homo sapiens (Human), UniProt Q96PN8); conditions: TSSK3, 10000 nM; read-out: Percent Control
TNIK = TNIK (Homo sapiens (Human), UniProt Q9UKE5); conditions: 10000 nM, read-out: Percent Control
DMPK2 = DMPK2 (Homo sapiens (Human), UniProt Q6DT37); conditions: DMPK2, 10000 nM; read-out: Percent Control
EPHB2 = EPHB2 (Homo sapiens (Human), UniProt P29323); conditions: EPHB2, 10000 nM; read-out: Percent Control
CDKL3 = CDKL3 (Homo sapiens (Human), UniProt Q8IVW4); conditions: CDKL3, 10000 nM; read-out: Percent Control
MRCKB = MRCKB (Homo sapiens (Human), UniProt Q9Y5S2); conditions: 10000 nM, read-out: Percent Control
PRKCD = PRKCD (Homo sapiens (Human), UniProt Q05655); conditions: 10000 nM, read-out: Percent Control
CDKL1 = CDKL1 (Homo sapiens (Human), UniProt Q00532); conditions: CDKL1, 10000 nM; read-out: Percent Control
MKK7 = MKK7 (Homo sapiens (Human), UniProt O14733); conditions: MKK7, 10000 nM; read-out: Percent Control
GAK = GAK (Homo sapiens (Human), UniProt O14976); conditions: 10000 nM, read-out: Percent Control
GAK, sequence (O14976 whole entry): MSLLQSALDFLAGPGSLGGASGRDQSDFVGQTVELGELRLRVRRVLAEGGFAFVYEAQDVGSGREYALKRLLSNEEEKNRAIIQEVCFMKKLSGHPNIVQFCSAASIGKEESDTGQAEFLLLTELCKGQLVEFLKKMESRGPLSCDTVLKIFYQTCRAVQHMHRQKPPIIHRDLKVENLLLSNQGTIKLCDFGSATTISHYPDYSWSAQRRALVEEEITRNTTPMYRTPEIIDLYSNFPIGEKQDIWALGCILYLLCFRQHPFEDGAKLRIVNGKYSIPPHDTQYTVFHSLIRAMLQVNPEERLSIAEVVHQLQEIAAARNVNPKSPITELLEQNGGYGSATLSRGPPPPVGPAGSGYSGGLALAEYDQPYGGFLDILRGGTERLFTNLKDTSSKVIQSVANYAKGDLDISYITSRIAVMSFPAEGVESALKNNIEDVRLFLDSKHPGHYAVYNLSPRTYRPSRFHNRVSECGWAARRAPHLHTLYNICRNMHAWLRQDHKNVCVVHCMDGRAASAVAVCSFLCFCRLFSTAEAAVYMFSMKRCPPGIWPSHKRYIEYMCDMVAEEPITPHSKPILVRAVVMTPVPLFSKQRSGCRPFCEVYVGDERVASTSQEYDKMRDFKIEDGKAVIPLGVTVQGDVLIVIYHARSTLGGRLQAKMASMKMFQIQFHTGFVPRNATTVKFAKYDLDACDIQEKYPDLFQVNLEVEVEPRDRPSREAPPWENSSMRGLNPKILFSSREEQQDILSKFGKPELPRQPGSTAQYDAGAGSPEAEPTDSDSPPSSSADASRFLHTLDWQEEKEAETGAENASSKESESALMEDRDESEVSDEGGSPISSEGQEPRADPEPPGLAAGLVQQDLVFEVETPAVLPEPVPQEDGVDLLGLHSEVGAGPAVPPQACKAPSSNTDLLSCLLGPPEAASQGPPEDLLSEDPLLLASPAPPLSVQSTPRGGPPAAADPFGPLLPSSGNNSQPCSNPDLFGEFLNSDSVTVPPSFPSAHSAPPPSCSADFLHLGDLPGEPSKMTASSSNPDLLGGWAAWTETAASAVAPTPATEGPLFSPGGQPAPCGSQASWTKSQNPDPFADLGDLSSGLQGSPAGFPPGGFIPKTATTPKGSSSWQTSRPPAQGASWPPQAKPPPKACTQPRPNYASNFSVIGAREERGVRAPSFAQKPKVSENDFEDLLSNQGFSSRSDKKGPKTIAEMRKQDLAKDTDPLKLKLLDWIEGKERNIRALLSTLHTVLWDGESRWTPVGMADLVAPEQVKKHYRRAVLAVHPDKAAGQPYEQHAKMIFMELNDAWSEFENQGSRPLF

BUB1 = BUB1 (Homo sapiens (Human), UniProt O43683); conditions: BUB1, 10000 nM; read-out: Percent Control
RIPK1 = RIPK1 (Homo sapiens (Human), UniProt Q13546); conditions: RIPK1, 10000 nM; read-out: Percent Control
FER = FER (Homo sapiens (Human), UniProt P16591); conditions: 10000 nM, read-out: Percent Control
CAMKK2 = CAMKK2 (Homo sapiens (Human), UniProt Q96RR4); conditions: CAMKK2, 10000 nM; read-out: Percent Control
BLK = BLK (Homo sapiens (Human), UniProt P51451); conditions: 10000 nM, read-out: Percent Control
LIMK2 = LIMK2 (Homo sapiens (Human), UniProt P53671); conditions: LIMK2, 10000 nM; read-out: Percent Control
[3] = target: TYK2(JH1domain-catalytic) (Homo sapiens (Human), UniProt P29597); conditions: 10000 nM, read-out: Percent Control
TGFBR1 = TGFBR1 (Homo sapiens (Human), UniProt P36897); conditions: TGFBR1, 10000 nM; read-out: Percent Control
WNK3 = WNK3 (Homo sapiens (Human), UniProt Q9BYP7); conditions: WNK3, 10000 nM; read-out: Percent Control

Q: With `COc1cc(N2CCC(N3CCN(C)CC3)CC2)ccc1Nc1ncc2c(n1)N(C)c1sc(C)nc1C(=O)N2` [Compound 3, 6-((2-methoxy-4-(4-(4-methylpiperazin-1-yl)piperidin-1-yl)phenyl)amino)-2,4-dimethyl-4,9-dihydro-10H-pyrimido[5,4-b]thiazolo[5,4-e][1,4]diazepin-10-one] as the compound, how does the remaining binding at 10 µM (FGR) read?
A: 77%

Q: And the remaining binding at 10 µM (TBK1)?
A: 71%

Q: And the remaining binding at 10 µM (PKAC-alpha)?
A: 72%

Q: What about the remaining binding at 10 µM (RDGFRB; RDGFRB) of the same compound?
A: 50%

Q: And the remaining binding at 10 µM (TNNI3K)?
A: 79%

Q: And the remaining binding at 10 µM (TEC)?
A: 69%

Q: What about the remaining binding at 10 µM (NEK3) of the same compound?
A: 88%

Q: What about the remaining binding at 10 µM (ALK(C1156Y)) of the same compound?
A: 100%

Q: And the remaining binding at 10 µM (TRKC)?
A: 100%

Q: What about the remaining binding at 10 µM (LRRK2) of the same compound?
A: 98%

Q: What about the remaining binding at 10 µM (FGFR3) of the same compound?
A: 92%

Q: What about the remaining binding at 10 µM [1] of the same compound?
A: 83%

Q: What about the remaining binding at 10 µM (PIK3CA(M1043I); PIK3CA(M1043I)) of the same compound?
A: 87%

Q: And the remaining binding at 10 µM [2]?
A: 100%

Q: What about the remaining binding at 10 µM (TNK2) of the same compound?
A: 20%

Q: And the remaining binding at 10 µM (TSSK3)?
A: 98%

Q: And the remaining binding at 10 µM (TNIK)?
A: 94%

Q: What about the remaining binding at 10 µM (DMPK2) of the same compound?
A: 91%

Q: And the remaining binding at 10 µM (EPHB2)?
A: 53%

Q: And the remaining binding at 10 µM (CDKL3)?
A: 75%

Q: And the remaining binding at 10 µM (MRCKB)?
A: 100%

Q: And the remaining binding at 10 µM (PRKCD)?
A: 86%

Q: And the remaining binding at 10 µM (CDKL1)?
A: 72%

Q: And the remaining binding at 10 µM (MKK7)?
A: 100%

Q: What about the remaining binding at 10 µM (GAK) of the same compound?
A: 4.2%

Q: What about the remaining binding at 10 µM (BUB1) of the same compound?
A: 100%

Q: What about the remaining binding at 10 µM (RIPK1) of the same compound?
A: 100%

Q: And the remaining binding at 10 µM (FER)?
A: 74%

Q: What about the remaining binding at 10 µM (CAMKK2) of the same compound?
A: 80%

Q: And the remaining binding at 10 µM (BLK)?
A: 55%

Q: What about the remaining binding at 10 µM (LIMK2) of the same compound?
A: 91%

Q: And the remaining binding at 10 µM [3]?
A: 84%

Q: What about the remaining binding at 10 µM (TGFBR1) of the same compound?
A: 88%

Q: And the remaining binding at 10 µM (WNK3)?
A: 100%

Q: Which remaining binding at 10 µM (FGR) does the source give for `COc1cc(N2CCC(N3CCN(C)CC3)CC2)ccc1Nc1ncc2c(n1)N(C)c1sc(C)nc1C(=O)N2C` [Compound 5, 6-((2-methoxy-4-(4-(4-methylpiperazin-1-yl)piperidin-1-yl)phenyl)amino)-2,4,9-trimethyl-4,9-dihydro-10H-pyrimido[5,4-b]thiazolo[5,4-e][1,4]diazepin-10-one] here?
A: 100%

Q: What about the remaining binding at 10 µM (TBK1) of the same compound?
A: 88%

Q: And the remaining binding at 10 µM (PKAC-alpha)?
A: 100%

Q: And the remaining binding at 10 µM (RDGFRB; PDGFRB)?
A: 100%

Q: What about the remaining binding at 10 µM (TNNI3K) of the same compound?
A: 88%

Q: And the remaining binding at 10 µM (TEC)?
A: 100%

Q: And the remaining binding at 10 µM (NEK3)?
A: 100%

Q: What about the remaining binding at 10 µM (ALK(C1156Y)) of the same compound?
A: 89%

Q: And the remaining binding at 10 µM (TRKC)?
A: 100%

Q: And the remaining binding at 10 µM (LRRK2)?
A: 32%

Q: And the remaining binding at 10 µM (FGFR3)?
A: 98%

Q: And the remaining binding at 10 µM [1]?
A: 100%

Q: What about the remaining binding at 10 µM (PIK3CA(M1043I); PIK3CA(M1043l)) of the same compound?
A: 100%

Q: What about the remaining binding at 10 µM [2] of the same compound?
A: 100%

Q: And the remaining binding at 10 µM (TNK2)?
A: 87%

Q: And the remaining binding at 10 µM (TSSK3)?
A: 98%

Q: And the remaining binding at 10 µM (TNIK)?
A: 99%

Q: And the remaining binding at 10 µM (DMPK2)?
A: 93%

Q: What about the remaining binding at 10 µM (EPHB2) of the same compound?
A: 99%

Q: What about the remaining binding at 10 µM (CDKL3) of the same compound?
A: 100%

Q: And the remaining binding at 10 µM (MRCKB)?
A: 100%

Q: What about the remaining binding at 10 µM (PRKCD) of the same compound?
A: 94%

Q: And the remaining binding at 10 µM (CDKL1)?
A: 80%

Q: What about the remaining binding at 10 µM (MKK7) of the same compound?
A: 100%

Q: And the remaining binding at 10 µM (GAK)?
A: 31%

Q: What about the remaining binding at 10 µM (BUB1) of the same compound?
A: 100%

Q: What about the remaining binding at 10 µM (RIPK1) of the same compound?
A: 96%

Q: What about the remaining binding at 10 µM (FER) of the same compound?
A: 57%

Q: What about the remaining binding at 10 µM (CAMKK2) of the same compound?
A: 88%

Q: And the remaining binding at 10 µM (BLK)?
A: 95%

Q: What about the remaining binding at 10 µM (LIMK2) of the same compound?
A: 98%

Q: What about the remaining binding at 10 µM [3] of the same compound?
A: 97%

Q: And the remaining binding at 10 µM (TGFBR1)?
A: 100%

Q: What about the remaining binding at 10 µM (WNK3) of the same compound?
A: 97%
